One data set concerns E. coli ATCC 25922. The data set is described as follows: MIC, standard microbroth dilution (NCCLS). In kind it is cell-based. As to conditions: Escherichia coli, read-out: Antibacterial activity (MIC). The protocol: (§1) The compounds of the present invention were tested for minimum inhibitory concentrations (MICs) against the bacteria listed in Table-1 according to the standard microbroth dilution method as described in a NCCLS document. The minimum inhibitory concentrations wer expressed in μg/ml. The test bacteria of 5×10^5 CFU/ml each were subjected to serial dilutions of the test material under aerobic conditions at 35° C. for 18 hours using Mueller Hinton broth. After incubation, the first concentration of wells to show a complete growth inhibition was considered as the MIC.

In another data set the test system is E. faecalis 2322 VRE. The data set is described as follows: MIC, standard microbroth dilution (NCCLS). In kind it is cell-based. To be noted: Enterococcus faecalis, read-out: Antibacterial activity (MIC). How it is done:
as §1

For the next data set, the system named is E. faecalis 2353 VSE. The data set is described as follows: MIC, standard microbroth dilution (NCCLS). As to conditions: Enterococcus faecalis, read-out: Antibacterial activity (MIC). Format: cell-based. How it is done:
as §1

Another data set relates to S. aureus ATCC 29213. Nature of the data set: MIC, standard microbroth dilution (NCCLS). In kind it is cell-based. As to conditions: Staphylococcus aureus, read-out: Antibacterial activity (MIC). The protocol:
as §1

For a further data set, the system named is S. aureus TN1152MRSA. The data set is described as follows: MIC, standard microbroth dilution (NCCLS). In kind it is cell-based. To be noted: Staphylococcus aureus, read-out: Antibacterial activity (MIC). The protocol:
as §1

The test system of another data set is S. epdermidis ATCC1228. The data set is described as follows: MIC, standard microbroth dilution (NCCLS). As to conditions: read-out: Antibacterial activity (MIC). Format: cell-based. The protocol:
as §1

Data set [1] in a line: Solubility characteristics of isolated Microsphaeropsin B. Format: physicochemical.
Where [2] appears, read: ATCC25922, E. coli ATCC 25922, 5×10^5 CFU/ml, Mueller Hinton broth, aerobic, 35° C., 18 hours.
[3] abbreviates: E. faecalis 2322 VRE, 5×10^5 CFU/ml, Mueller Hinton broth, aerobic, 35° C., 18 hours.
The mark [4] stands for this setting: E. faecalis 2353 VSE, 5×10^5 CFU/ml, Mueller Hinton broth, aerobic, 35° C., 18 hours.
The mark [5] stands for this setting: ATCC29213, S. aureus ATCC 29213, 5×10^5 CFU/ml, Mueller Hinton broth, aerobic, 35° C., 18 hours.
[6] abbreviates: S. aureus TN1152MRSA, 5×10^5 CFU/ml, Mueller Hinton broth, aerobic, 35° C., 18 hours.
The mark [7] stands for this setting: S. epdermidis ATCC1228, 5×10^5 CFU/ml, Mueller Hinton broth, aerobic, 35° C., 18 hours.

≈ marks a conversion by molar mass, not a printed value. Where two headings read alike, the source gives them in different places. Bounds are passed on as bounds.

In the case of `CC1(C)S[C@@H]2[C@H](NC(=O)[C@H](N)c3ccccc3)C(=O)N2[C@H]1C(=O)O` [Ampicillin], the minimum inhibitory concentration (MIC) came to 2 µg/mL (≈ 5.72 µM) with E. coli ATCC 25922 (setting [2]); 32 µg/mL (≈ 91.6 µM) in the data set on E. faecalis 2322 VRE (setting [3]); 0.25 µg/mL (≈ 0.715 µM) in the data set on E. faecalis 2353 VSE (setting [4]); 0.062 µg/mL (≈ 0.177 µM) in the data set on S. aureus ATCC 29213 (setting [5]); 8 µg/mL (≈ 22.9 µM) with S. aureus TN1152MRSA (setting [6]); 16 µg/mL (≈ 45.8 µM) in the data set with S. epdermidis ATCC1228 (setting [7]).

Regarding `C/C=C/C=C/C1C=CC2CC(C)CCC2C1(C)C(=O)C1=C(O)C(C(C)O)NC1=O` (stereo not shown) [Microsphaeropsin B], the MIC with E. coli ATCC 25922 (setting [2]) was over 32 µg/mL; with E. faecalis 2322 VRE (setting [3]) it was 2 µg/mL (≈ 5.01 µM); with E. faecalis 2353 VSE (setting [4]) it was 1 µg/mL (≈ 2.5 µM); in the data set with S. aureus ATCC 29213 (setting [5]), 0.5 µg/mL (≈ 1.25 µM); with S. aureus TN1152MRSA (setting [6]), 0.5 µg/mL (≈ 1.25 µM); in the data set on S. epdermidis ATCC1228 (setting [7]) it was 1 µg/mL (≈ 2.5 µM). In addition, the “Behaviour on addition of water” value in data set [1] (dissolution in ethanol or dimethyl sulphoxide followed by addition of water) was “immediate precipitate formation”. Moreover, the Solubility entry in data set [1] (in 1M sodium hydroxide solution), in data set [1] (in 5% sodium bicarbonate) and in data set [1] (in water) was “insoluble” in each case.

On to `CN[C@H](CC(C)C)C(=O)N[C@H]1C(=O)N[C@@H](CC(N)=O)C(=O)N[C@H]2C(=O)N[C@H]3C(=O)N[C@H](C(=O)N[C@H](C(=O)O)c4cc(O)cc(O)c4-c4cc3ccc4O)[C@H](O)c3ccc(c(Cl)c3)Oc3cc2cc(c3O[C@@H]2O[C@H](CO)[C@@H](O)[C@H](O)[C@H]2O[C@H]2C[C@](C)(N)[C@H](O)[C@H](C)O2)Oc2ccc(cc2Cl)[C@H]1O` [Vancomycin], for which the MIC in the data set with E. coli ATCC 25922 (ATCC25922, 18 h) was over 32 µg/mL; in the data set on E. faecalis 2322 VRE (VRE, 18 h), 16 µg/mL (≈ 11 µM); in the data set on E. faecalis 2353 VSE (2353VSE, 18 h), 0.25 µg/mL (≈ 0.173 µM); with S. aureus ATCC 29213 (ATCC29213, 18 h), 0.5 µg/mL (≈ 0.345 µM); with S. aureus TN1152MRSA (TN1152MRSA, 18 h), 0.25 µg/mL (≈ 0.173 µM); in the data set with S. epdermidis ATCC1228 (18 h), 0.5 µg/mL (≈ 0.345 µM).

The record behind these values is US20030166707A1, “Microsphaeropsin B as novel antibacterial agent, process for producing the same and pharmaceutical composition containing thereof” (priority 2001, published 2003).
